Earlier results as cited in patent US5574062A, “Coumarin derivative and use thereof” (Morinaga Milk Industry Co., Ltd., priority 1993, dated 1996).

Legend:
[1] = system: 5-lipoxygenase; conditions: 10 uM, cited from earlier work
[2] = system: 12-lipoxygenase; conditions: same concentration (10 uM), platelets; cited from earlier work

Oc1ccc(C2COc3cc(O)c(O)cc3C2)cc1 (stereo not drawn) [compound of 12), 4',6,7-trihydroxyisoflavan]
inhibition of formation of 5-lipoxygenase metabolic products ([1]; human peripheral leukocytes): completely | selectivity between 5-lipoxygenase and 12-lipoxygenase (in words) ([1]; literature, leukocytes vs. platelets): selective toward 5-lipoxygenase | inhibition of formation of 12-lipoxygenase metabolic products [2]: 25%
